This note sets out measurements from patent US7049289B1, “Labelled glutamine and lysine analogues” (Amersham PLC, priority 1998, dated 2006).

*1 amine or outer side, *2 acyl side, *3 side chain or, on linkers, in order; H or OH if unused. The star is where a group is joined. Adamantane1carbonyl = O=C(C12CC3CC(CC(C3)C1)C2)*; Fmoc = O=C(OCC1c2ccccc2-c2ccccc21)*; Glutaryl = O=C(CCCC(=O)[*:2])[*:1]

The target of assay [1] is T1, fibrin (in vitro human plasma clot) (Homo sapiens, UniProt P02671+P02675+P02679).
T1 construct: about 400 μl of human plasma containing the radiolabelled substrate; from tissue; host or cells: human plasma, clotted in vitro with added thrombin and calcium chloride
T1 sequence (P02671 20-644 isoform P02671-2 limits assumed): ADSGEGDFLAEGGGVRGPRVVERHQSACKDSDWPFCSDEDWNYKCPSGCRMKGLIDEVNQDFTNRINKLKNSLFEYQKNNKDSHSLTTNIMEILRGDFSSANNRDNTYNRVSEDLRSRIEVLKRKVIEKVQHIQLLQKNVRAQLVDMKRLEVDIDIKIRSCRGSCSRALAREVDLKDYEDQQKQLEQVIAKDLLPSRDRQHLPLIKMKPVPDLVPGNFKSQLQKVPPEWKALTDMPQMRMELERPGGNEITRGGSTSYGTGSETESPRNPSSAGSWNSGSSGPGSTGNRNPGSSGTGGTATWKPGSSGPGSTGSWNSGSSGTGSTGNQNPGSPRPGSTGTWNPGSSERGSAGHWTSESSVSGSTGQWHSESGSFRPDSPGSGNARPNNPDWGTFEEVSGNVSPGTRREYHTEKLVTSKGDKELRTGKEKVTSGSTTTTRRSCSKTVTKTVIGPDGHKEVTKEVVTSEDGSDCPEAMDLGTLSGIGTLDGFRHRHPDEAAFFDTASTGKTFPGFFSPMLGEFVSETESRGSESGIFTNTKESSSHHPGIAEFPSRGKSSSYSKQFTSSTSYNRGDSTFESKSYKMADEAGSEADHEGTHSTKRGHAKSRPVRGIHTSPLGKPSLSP
T1 sequence (P02675 45-491 limits assumed): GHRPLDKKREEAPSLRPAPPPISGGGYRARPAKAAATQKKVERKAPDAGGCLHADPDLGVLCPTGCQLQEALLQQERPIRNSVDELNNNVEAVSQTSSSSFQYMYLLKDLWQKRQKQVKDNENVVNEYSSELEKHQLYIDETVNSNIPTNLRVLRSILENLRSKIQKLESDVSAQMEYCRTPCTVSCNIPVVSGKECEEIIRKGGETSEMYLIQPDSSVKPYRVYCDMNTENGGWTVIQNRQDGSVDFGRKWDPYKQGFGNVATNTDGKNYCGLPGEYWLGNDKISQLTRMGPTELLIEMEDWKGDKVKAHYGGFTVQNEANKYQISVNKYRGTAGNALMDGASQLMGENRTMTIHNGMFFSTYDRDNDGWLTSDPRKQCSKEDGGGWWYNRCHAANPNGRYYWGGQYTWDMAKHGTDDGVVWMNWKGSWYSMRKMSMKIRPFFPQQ
T1 sequence (P02679 27-437 isoform P02679-2 limits assumed): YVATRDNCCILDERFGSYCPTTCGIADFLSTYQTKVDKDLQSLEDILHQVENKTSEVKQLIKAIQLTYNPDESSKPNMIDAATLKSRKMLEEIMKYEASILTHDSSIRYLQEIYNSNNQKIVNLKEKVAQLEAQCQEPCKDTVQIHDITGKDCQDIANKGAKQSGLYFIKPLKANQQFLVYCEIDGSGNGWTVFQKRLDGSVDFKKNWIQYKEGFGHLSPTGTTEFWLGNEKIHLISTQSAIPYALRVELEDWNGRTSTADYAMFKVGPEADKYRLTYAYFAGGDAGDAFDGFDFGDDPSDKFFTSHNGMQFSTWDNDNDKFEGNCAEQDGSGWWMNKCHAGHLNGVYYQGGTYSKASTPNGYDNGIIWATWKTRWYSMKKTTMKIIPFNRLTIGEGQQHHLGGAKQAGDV
In words: Incorporation into human plasma clots in vitro. The conditions noted are these: for % specific uptake: % retained (with thrombin) - % retained (no thrombin); for % retained (no thrombin): control without thrombin and calcium chloride (non-specific binding); for % retained (with thrombin): human plasma clot, 60 minutes, ca. 20° C. Format: biochemical. In a few lines:
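Human plasma containing radiolabelled substrate (typically 10 kBq/ml) clotted with thrombin in Tris-saline pH 7.5 with 4 mM CaCl2, 60 min at ca. 20 °C, then stopped with cold EDTA. Clots collected on nitrocellulose filters and washed; incorporation is filter-retained radioactivity fraction minus non-specific binding from thrombin/calcium-free controls.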

Assay [2] is described as follows: Incorporation into clots induced in a rat model (rat inferior vena cava model). To be noted: for % id/g (clot) / Rel. Conc. (cpm/g of clot by dose/g animal): sacrificed after 60 min. Format: in vivo, rat (Male Wistar). The method in brief:
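Male Wistar rats (250–350 g) under 15% urethane anaesthesia, with the vena cava isolated by laparotomy. Compounds given 5 min (fresh clot) or 60 min (aged clot) after clot induction; clot, blood, lung and heart removed 60 min later, weighed and counted. Uptake expressed as cpm/g clot per dose/g animal and as clot-to-background tissue ratio.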

Where [3] appears, read: Aged Clots: injected 60 min post-induction.
Where [4] appears, read: Fresh Clots: injected 5 min post-induction.

Take “Ac-N—CH2NH2-QEQVSP(D-Y)TLL(D-K)G-Pn216 [^99mTc-Cmpd 34]”: in assay [1], the “% specific uptake” value worked out at 5.4%, the “% retained (no thrombin)” value was found to be 0.1%, the “% retained (with thrombin)” value is reported as 5.5% and the “in vitro clot uptake (in words)” value was “significant reduction in uptake”. In assay [2] (Aged Clots), this substance showed a Clot/blood of 3 and a Clot/liver of 6. In assay [2] (setting [3]), the “% id/g (clot)” value is listed as 0.4 ± 0.1 % id/g and the “Rel. Conc. (cpm/g of clot by dose/g animal)” value turned out to be 1.4 ± 0.4. In assay [2] (Fresh Clots), this substance gave a Clot/blood of 2, a Clot/heart of 6, a Clot/liver of 8 and a Clot/lung of 3. Further, in assay [2] (setting [4]), the “% id/g (clot)” value amounted to 0.5 ± 0.2 % id/g and the “Rel. Conc. (cpm/g of clot by dose/g animal)” value was 1.8 ± 0.5.

Take “Adamantoyl-NQEQVSPYTLLKG-Pn216 (Adamantane1carbonyl-NQEQVSPYTLLKG-Pn216; also: 99mTc complex) [^99mTc-Cmpd 11]”: in assay [1], the “% specific uptake” value turned out to be 66.9%, the “% retained (no thrombin)” value came out at 1.2% and the “% retained (with thrombin)” value is listed as 68.1%. Moreover, in assay [2] (Aged Clots), the Clot/blood is 5, the Clot/heart is on record as 13, the Clot/liver was 4 and the Clot/lung is on record as 6. In assay [2] (setting [3]), the “% id/g (clot)” value is 0.4 ± 0.3 % id/g and the “Rel. Conc. (cpm/g of clot by dose/g animal)” value stood at 1.2 ± 0.8. In assay [2] (Fresh Clots), this substance returned a Clot/blood of 10, a Clot/heart of 24, a Clot/liver of 11 and a Clot/lung of 11. In assay [2] (setting [4]), the “% id/g (clot)” value came out at 1.1 ± 0.4 % id/g and the “Rel. Conc. (cpm/g of clot by dose/g animal)” value stood at 3.3 ± 1.1.

Turning to “Cyclo-[NQEQVSPYTLLKG] (cyclo(NQEQVSPYTLLKG); also: 123I label, place not given here) [^123I-Cmpd 44]”, in assay [1], the “% specific uptake” value is 13.8%, the “% retained (no thrombin)” value stood at 0.3% and the “% retained (with thrombin)” value worked out at 14.1%. Besides, in assay [2] (Aged Clots), the Clot/blood amounted to 0.9, the Clot/heart is 1, the Clot/liver was 1 and the Clot/lung is given as 2. Moreover, in assay [2] (setting [3]), the “% id/g (clot)” value is on record as 0.5 ± 0.03 % id/g and the “Rel. Conc. (cpm/g of clot by dose/g animal)” value amounted to 1.2 ± 0.1. Also, in assay [2] (Fresh Clots), the Clot/blood is 0.9, the Clot/heart is 1, the Clot/liver was 2 and the Clot/lung was 1.5. Further, in assay [2] (setting [4]), the “% id/g (clot)” value was 0.4 ± 0.1 % id/g and the “Rel. Conc. (cpm/g of clot by dose/g animal)” value came to 1.1 ± 0.2.

With “Fmoc-NQEQVSP(I-Y)TLLKG-Pn216 [^99mTc-Cmpd 26]”, in assay [1], the “% specific uptake” value was 55.1%, the “% retained (no thrombin)” value is recorded as 8.2% and the “% retained (with thrombin)” value came out at 63.3%. Besides, in assay [2] (Aged Clots), the Clot/blood was determined as 7, the Clot/heart was 31, the Clot/liver was found to be 54 and the Clot/lung is 12. Further, in assay [2] (setting [3]), the “% id/g (clot)” value turned out to be 4.0 ± 0.9 % id/g and the “Rel. Conc. (cpm/g of clot by dose/g animal)” value stood at 12.9 ± 3.5. Besides, in assay [2] (Fresh Clots), the Clot/blood came to 16, the Clot/heart worked out at 38, the Clot/liver was 16 and the Clot/lung is given as 11. In assay [2] (setting [4]), the “% id/g (clot)” value turned out to be 14.1 ± 10 % id/g and the “Rel. Conc. (cpm/g of clot by dose/g animal)” value is listed as 41.4 ± 28.

Consider “Fmoc-NQEQVSPYTLLKG-Pn216 (also: 99mTc complex) [^99mTc-Cmpd 9]”, for which, in assay [1], the “% specific uptake” value worked out at 42.8%, the “% retained (no thrombin)” value is 2.7% and the “% retained (with thrombin)” value worked out at 44.5%. Further, in assay [2] (Aged Clots), the Clot/blood is recorded as 8, the Clot/heart was found to be 21, the Clot/liver was found to be 6 and the Clot/lung came out at 7. In assay [2] (setting [3]), the “% id/g (clot)” value worked out at 3.7 ± 0.4 % id/g and the “Rel. Conc. (cpm/g of clot by dose/g animal)” value is reported as 11.4 ± 1.5. In assay [2] (Fresh Clots), this substance yielded a Clot/blood of 13, a Clot/heart of 32, a Clot/liver of 13 and a Clot/lung of 12. Moreover, in assay [2] (setting [4]), the “% id/g (clot)” value is 8.8 ± 3.6 % id/g and the “Rel. Conc. (cpm/g of clot by dose/g animal)” value is listed as 24.8 ± 9.6.

For “Fmoc-NQQQ(D-V)S(OMe)PLG-Pn216 [^99mTc-Cmpd 37]”, in assay [1], the “% specific uptake” value amounted to 12.8%, the “% retained (no thrombin)” value is given as 0.2% and the “% retained (with thrombin)” value is listed as 13.0%. Moreover, in assay [2] (Aged Clots), the Clot/blood is 0.4, the Clot/heart is reported as 2, the Clot/liver was 9 and the Clot/lung stood at 1. In assay [2] (setting [3]), the “% id/g (clot)” value amounted to 0.2 ± 0.03 % id/g and the “Rel. Conc. (cpm/g of clot by dose/g animal)” value came out at 0.5 ± 0.1. In assay [2] (Fresh Clots), this substance showed a Clot/blood of 0.6, a Clot/heart of 1, a Clot/liver of 1 and a Clot/lung of 0.7. Moreover, in assay [2] (setting [4]), the “% id/g (clot)” value amounted to 0.4 ± 0.2 % id/g and the “Rel. Conc. (cpm/g of clot by dose/g animal)” value came out at 0.9 ± 0.4.

Consider “NQEQVSPYTLLK [^123I-Cmpd 1, reference compound]”, for which, in assay [1], the “% specific uptake” value is recorded as 12.6%, the “% retained (no thrombin)” value is listed as 2.0% and the “% retained (with thrombin)” value is 14.6%. In addition, in assay [2], the “RC (in vivo clot uptake)” value is listed as 1.5. The Clot/blood in assay [2] (Fresh Clots) amounted to 1. In assay [2] (setting [4]), the “% id/g (clot)” value turned out to be 0.5 ± 0.1 % id/g and the “Rel. Conc. (cpm/g of clot by dose/g animal)” value was 1.6 ± 0.4.

As for “Pn44-CO(CH2)3CO-NQEQVSPYTLLKG-NH2 ({Pn44-Glutaryl}-NQEQVSPYTLLKG-NH2; also: 99mTc complex) [^99mTc-Cmpd 38]”, in assay [1], the “% specific uptake” value was 20.3%, the “% retained (no thrombin)” value was 0.7% and the “% retained (with thrombin)” value is on record as 21.0%. In assay [2] (Aged Clots), the Clot/blood was 3, the Clot/heart was 1, the Clot/liver came out at 2 and the Clot/lung is on record as 0.5. For the same substance, in assay [2] (setting [3]), the “% id/g (clot)” value was determined as 0.8 ± 0.3 % id/g and the “Rel. Conc. (cpm/g of clot by dose/g animal)” value is recorded as 2.4 ± 0.7. In assay [2] (Fresh Clots), the Clot/blood amounted to 5, the Clot/heart came to 15, the Clot/liver is 3 and the Clot/lung is 6. In addition, in assay [2] (setting [4]), the “% id/g (clot)” value was 1.9 ± 0.5 % id/g and the “Rel. Conc. (cpm/g of clot by dose/g animal)” value is given as 5.4 ± 1.5.

On to “Pn216-CO(CH2)3CO-G(D-K)(D-L)(D-L)(D-T)(D-Y)(D-P)(D-S)(D-V)NH2 [^99mTc-Cmpd 36]”, for which, in assay [1], the “% specific uptake” value amounted to 8.6%, the “% retained (no thrombin)” value was 0.1%, the “% retained (with thrombin)” value is recorded as 8.7% and the “in vitro clot uptake (in words)” value is given as “significant reduction in uptake”. Also, in assay [2] (Aged Clots), the Clot/blood was 0.6, the Clot/heart was found to be 18, the Clot/liver worked out at 4 and the Clot/lung is on record as 10. Further, in assay [2] (setting [3]), the “% id/g (clot)” value was determined as 0.1 ± 0.02 % id/g and the “Rel. Conc. (cpm/g of clot by dose/g animal)” value is 0.2 ± 0.1. Moreover, in assay [2] (Fresh Clots), the Clot/blood was found to be 1, the Clot/heart amounted to 3, the Clot/liver came out at 4 and the Clot/lung is given as 1. Further, in assay [2] (setting [4]), the “% id/g (clot)” value is 0.2 ± 0.1 % id/g and the “Rel. Conc. (cpm/g of clot by dose/g animal)” value amounted to 0.7 ± 0.3.
